Experimental data from patent US7432392B2, “Ester derivatives and medical use thereof” (Japan Tobacco Inc., priority 2003, dated 2008).

Target: T1, Microsomal triglyceride transfer protein (MTP) from bovine liver (Bos taurus, UniProt P55156)
T1 construct: the purified MTP was used for the test; from tissue; host or cells: bovine liver
T1 sequence (P55156 12-887): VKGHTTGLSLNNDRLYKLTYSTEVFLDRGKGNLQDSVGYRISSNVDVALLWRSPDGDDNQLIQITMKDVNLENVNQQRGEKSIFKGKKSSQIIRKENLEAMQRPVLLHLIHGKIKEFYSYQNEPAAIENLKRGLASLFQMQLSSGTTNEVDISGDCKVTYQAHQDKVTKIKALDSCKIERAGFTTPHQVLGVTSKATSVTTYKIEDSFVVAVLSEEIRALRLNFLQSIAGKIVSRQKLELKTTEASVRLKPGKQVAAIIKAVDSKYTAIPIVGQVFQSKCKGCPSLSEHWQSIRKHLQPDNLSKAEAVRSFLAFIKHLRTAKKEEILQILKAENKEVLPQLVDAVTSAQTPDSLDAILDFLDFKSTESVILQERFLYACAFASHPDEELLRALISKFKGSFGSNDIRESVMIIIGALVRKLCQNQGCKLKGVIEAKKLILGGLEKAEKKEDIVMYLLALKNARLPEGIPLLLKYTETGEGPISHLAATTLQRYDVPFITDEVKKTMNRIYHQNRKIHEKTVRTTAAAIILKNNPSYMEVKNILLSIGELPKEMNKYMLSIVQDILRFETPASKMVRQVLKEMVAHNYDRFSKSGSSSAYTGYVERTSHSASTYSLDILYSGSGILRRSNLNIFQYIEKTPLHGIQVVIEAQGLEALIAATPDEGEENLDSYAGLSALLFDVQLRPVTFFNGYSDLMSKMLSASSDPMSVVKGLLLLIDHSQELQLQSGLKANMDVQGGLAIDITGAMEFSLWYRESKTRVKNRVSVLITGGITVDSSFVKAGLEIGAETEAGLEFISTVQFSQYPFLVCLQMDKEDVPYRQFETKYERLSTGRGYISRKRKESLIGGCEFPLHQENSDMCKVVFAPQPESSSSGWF
T1 sequence (P05307 21-510 partner): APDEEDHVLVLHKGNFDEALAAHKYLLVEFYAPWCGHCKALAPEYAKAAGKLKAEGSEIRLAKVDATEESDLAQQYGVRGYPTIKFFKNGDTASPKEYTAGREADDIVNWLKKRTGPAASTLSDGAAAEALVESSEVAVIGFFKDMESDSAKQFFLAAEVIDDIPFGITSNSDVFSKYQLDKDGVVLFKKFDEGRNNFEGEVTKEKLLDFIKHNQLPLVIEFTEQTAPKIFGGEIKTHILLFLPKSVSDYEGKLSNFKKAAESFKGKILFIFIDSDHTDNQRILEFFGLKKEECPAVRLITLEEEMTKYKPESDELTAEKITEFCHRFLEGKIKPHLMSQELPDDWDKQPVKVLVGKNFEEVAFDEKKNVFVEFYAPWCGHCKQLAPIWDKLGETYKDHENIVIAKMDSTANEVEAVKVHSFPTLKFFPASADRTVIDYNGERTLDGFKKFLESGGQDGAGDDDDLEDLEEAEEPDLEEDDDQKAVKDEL
Test: Inhibition of interliposomal triglyceride (TG) transfer activity by MTP
Assay type: biochemical
Conditions: MTP-mediated TG transfer between donor and acceptor liposomes, 37° C., one hour
Method: Microsomal triglyceride transfer protein (MTP) from bovine liver was partially purified in such a way described below. A buffer (50 mM Tris, 250 mM sucrose, 1 mM EDTA, 0.02% NaN3 (pH 7.4)) for making a homogenate preparation was added to bovine liver, and the mixture was homogenated under ice-cooling, then centrifuged at 10,000×g (4° C., 30 minutes) The supernatant was adjusted to pH 5.1 with hydrochloric acid, and stirred for 30 minutes. The solution was further centrifuged at 10,000×g (4° C., 30 minutes), and 1 mM Tris buffer was added to the precipitated residue, and the mixture was adjusted to pH 8.6 with sodium hydroxide. After addition of 2.7 M ammonium sulfate solution, the mixture was stirred for 30 minutes, then centrifuged at 10,000×g (4° C., 40 minutes). The resulting supernatant was served as a crude extraction fraction of MTP and stored at −80° C. under freezing. In its practical use, the crude extraction fraction of MTP was purified by column chromatography on diethylaminoethyl (DEAE) Sepharose using FPLC (Fast Performance Liquid Chromatography) system, and the purified MTP was used for the test.
Small unilamellar-vesicle (SUV) liposome (donor, 0.25 mol % triolein, 5 mol % cardiolipin) labeled with ^14C-triolein and non-labeled SUV liposome (acceptor, 0.25 mol % triolein) were prepared. A fixed amount of donor and acceptor, and MTP were mixed with a sample dissolved in DMSO or with DMSO. The mixture was incubated in a 15 mM Tris hydrochloride buffer (pH 7.4) containing 40 mM sodium chloride, 1 mM EDTA (ethylenediaminetetraacetic acid), 0.02% NaN3 and 0.5% bovine serum albumin at 37° C. for one hour. After completion of the incubation, a suspension of DEAE cellulose (50% v/v) in 15 mM Tris hydrochloride buffer (pH 7.4) was added to the above solution, and the mixture was centrifuged to separate the donor and the acceptor. The radioactivity in the acceptor was measured by liquid scintillation counter. The value obtained by subtracting the radioactivity in the blank from the amount of radioactivity in the acceptor of a DMSO group was determined as MTP-mediated TG transfer activity, and it was compared with the value obtained by subtracting the radioactivity in the blank from the radioactivity in a sample group. The blank was prepared by adding 15 mM Tris-HCl buffer (pH 7.4) in place of MTP. Inhibition rate (%) was calculated from the values obtained according to the following equation.
Inhibition rate (%)=100×(1 minus ((radioactivity of sample group minus radioactivity of blank group)/(radioactivity of DMSO group minus radioactivity of blank group))). 50% Inhibition rate (IC50) was determined on the basis of the above equation.

Compound	IC50
CCOC(=O)C(COC(=O)Oc1c(F)cc(NC(=O)c2ccc(C(F)(F)F)cc2-c2ccc(C(F)(F)F)cc2)c(C(=O)N(C)C)c1F)(C(=O)OCC)c1cccs1 [Example 2-32]	< 0.01 µM
CCOC(=O)C(COC(=O)Oc1ccc(NC(=O)c2cccnc2-c2ccc(C(F)(F)F)cc2)c(C(=O)N(C)C)c1)(C(=O)OCC)c1ccccc1 [Example 2-25]	< 0.01 µM
CCOC(=O)C(CCC(=O)Oc1c(F)cc(NC(=O)c2ccccc2-c2ccc(C(F)(F)F)cc2)c(C(=O)NC)c1F)(C(=O)OCC)c1ccccc1 [Example 3-10]	< 0.01 µM
CCOC(=O)C(COC(=O)Cc1ccc(N(C)C(=O)c2ccccc2-c2ccc(C(F)(F)F)cc2)c(OC(C)=O)c1)(C(=O)OCC)c1ccccc1 [Example 1-8]	< 0.01 µM
CCOC(=O)C(COC(=O)Oc1ccc(NC(=O)c2ccc(C)cc2-c2ccc(C(F)(F)F)cc2)c(C(=O)N(C)C)c1)(C(=O)OCC)c1ccccc1 [Example 2-8]	< 0.01 µM
CCOC(=O)C(COC(=O)Oc1ccc(NC(=O)c2ccccc2-c2ccc(C(F)(F)F)cc2)c(C(=O)N2CCCC2)c1)(C(=O)OCC)c1ccccc1 [Example 2-14]	< 0.01 µM
CCOC(=O)C(COC(=O)Cc1ccc(NC(=O)c2ccc(C)cc2-c2ccc(C(F)(F)F)cc2)c(OC(C)=O)c1)(C(=O)OCC)c1ccccc1 [Example 1-5]	< 0.01 µM
CCOC(=O)C(COC(=O)Oc1c(F)cc(NC(=O)c2ccc(C)cc2-c2ccc(C(F)(F)F)cc2)c(C(=O)N(C)C)c1F)(C(=O)OCC)c1cccs1 [Example 2-29]	< 0.01 µM
CCOC(=O)C(COC(=O)Oc1ccc(NC(=O)c2cnc(NC)nc2-c2ccc(C(F)(F)F)cc2)c(C(=O)N(C)C)c1)(C(=O)OCC)c1ccccc1 [Example 2-27]	0.01 to 0.1 µM
CCOC(=O)C(CCC(=O)Oc1ccc(N(C)C(=O)c2ccccc2-c2ccc(C(F)(F)F)cc2)c(C(=O)N(C)C)c1)(C(=O)OCC)c1ccccc1 [Example 3-8]	< 0.01 µM
CCOC(=O)C(CC(=O)Oc1ccc(NC(=O)c2ccccc2-c2ccc(C(F)(F)F)cc2)c(C(=O)N(C)C)c1)(C(=O)OCC)c1ccccc1 [Example 3-4]	< 0.01 µM
CCOC(=O)C(COC(=O)Oc1c(F)cc(NC(=O)c2cccc(C)c2-c2ccc(C(F)(F)F)cc2)c(C(=O)N(C)C)c1F)(C(=O)OCC)c1cccs1 [Example 2-34]	< 0.01 µM
CCOC(=O)C(CCC(=O)Oc1c(F)cc(NC(=O)c2ccc(C)cc2-c2ccc(C(F)(F)F)cc2)c(C(=O)N(C)C)c1F)(C(=O)OCC)c1ccccc1 [Example 3-22]	< 0.01 µM
CCOC(=O)C(COC(=O)Oc1ccc(NC(=O)c2ccccc2-c2ccc(C(F)(F)F)cc2)c(C(=O)N(C)C)c1)(C(=O)OCC)c1ccccn1 [Example 2-18]	< 0.01 µM
CCN(C)C(=O)C(CCC(=O)Oc1c(F)cc(NC(=O)c2ccccc2-c2ccc(C(F)(F)F)cc2)c(C(=O)N(C)C)c1F)(C(=O)N(C)CC)c1ccccc1 [Example 3-18]	0.01 to 0.1 µM
CCOC(=O)C(COC(=O)Oc1c(F)cc(NC(=O)c2ccccc2-c2ccc(C(F)(F)F)cc2)c(C(=O)N(C)C)c1F)(C(=O)OCC)c1ccccc1 [Example 2-20]	0.01 to 0.1 µM

Compound	IC50
CCOC(=O)C(COC(=O)Oc1c(F)cc(NC(=O)c2ccc(C)cc2-c2ccc(C(F)(F)F)cc2)c(C(=O)N2CCOCC2)c1F)(C(=O)OCC)c1cccs1 [Example 2-43]	0.01 to 0.1 µM
CCOC(=O)C(COC(=O)Oc1c(F)cc(NC(=O)c2ccccc2-c2ccc(C(F)(F)F)cc2)c(C(=O)N(C)CC(=O)OC)c1F)(C(=O)OCC)c1cccs1 [Example 2-42]	0.01 to 0.1 µM
CCOC(=O)C(COC(=O)Oc1cc(C(=O)N(C)C)c(NC(=O)c2ccccc2-c2ccc(C(F)(F)F)cc2)cc1F)(C(=O)OCC)c1ccccc1 [Example 2, 2-{5-Dimethylcarbamoyl-2-fluoro-4-[(4′-trifluoromethyl-biphenyl-2-carbonyl)amino]phenoxycarbonyloxymethyl}-2-phenylmalonic acid diethyl ester]	< 0.01 µM
CCOC(=O)C(COC(=O)Oc1ccc(NC(=O)c2ccccc2-c2ccc(C(F)(F)F)cc2)c(C(=O)N(C)C)c1)(C(=O)OCC)c1ccccc1 [Example 2-4]	< 0.01 µM
CCNC(=O)C(COCC(=O)Oc1ccc(NC(=O)c2ccccc2-c2ccc(C(F)(F)F)cc2)c(C(=O)N(C)C)c1)(C(=O)NCC)c1ccccc1 [Example 3-12]	< 0.01 µM
CCOC(=O)C(CCC(=O)Oc1c(F)cc(NC(=O)c2ccccc2-c2ccc(C(F)(F)F)cc2)c(C(=O)N(C)C)c1F)(C(=O)OCC)c1cccs1 [Example 3-20]	< 0.01 µM
CCOC(=O)C(COC(=O)Oc1c(F)cc(NC(=O)c2ccccc2-c2ccc(C(F)(F)F)cc2)c(C(=O)N2CCN(C(C)=O)CC2)c1F)(C(=O)OCC)c1cccs1 [Example 2-46]	0.1 to 1 µM
CCOC(=O)C(COC(=O)Oc1c(F)cc(NC(=O)c2cc(C)ccc2-c2ccc(C(F)(F)F)cc2)c(C(=O)N(C)C)c1F)(C(=O)OCC)c1cccs1 [Example 2-35]	0.01 to 0.1 µM
CCOC(=O)C(COC(=O)Oc1cc(C(=O)N(C)C)c(NC(=O)c2ccccc2-c2ccc(C(F)(F)F)cc2)cc1C)(C(=O)OCC)c1ccccc1 [Example 2-15]	< 0.01 µM
CCOC(=O)C(COC(=O)Oc1c(F)cc(NC(=O)c2ccccc2-c2ccc(C(F)(F)F)cc2)c(C(=O)N2CCC(O)CC2)c1F)(C(=O)OCC)c1cccs1 [Example 2-47]	0.1 to 1 µM
CCNC(=O)C(CCCCC(=O)Oc1c(F)cc(NC(=O)c2ccccc2-c2ccc(C(F)(F)F)cc2)c(C(=O)N(C)C)c1F)(C(=O)NCC)c1cccs1 [Example 3-15]	0.1 to 1 µM
CCN(C)C(=O)C(COC(=O)Oc1c(F)cc(NC(=O)c2ccccc2-c2ccc(C(F)(F)F)cc2)c(C(=O)N(C)C)c1F)(C(=O)N(C)CC)c1ccccc1 [Example 2-31]	0.01 to 0.1 µM
CCOC(=O)C(CCC(=O)Oc1c(F)cc(NC(=O)c2ccc(C)cc2-c2ccc(C(F)(F)F)cc2)c(C(=O)N(C)C)c1F)(C(=O)OCC)c1cccs1 [Example 3-21]	< 0.01 µM
CCN(C)C(=O)C(CCCC(=O)Oc1c(F)cc(NC(=O)c2ccccc2-c2ccc(C(F)(F)F)cc2)c(C(=O)N(C)C)c1F)(C(=O)N(C)CC)c1ccccc1 [Example 3-19]	0.1 to 1 µM
CCOC(=O)C(COC(=O)Oc1c(F)cc(NC(=O)c2ccccc2-c2ccc(C(F)(F)F)c(F)c2)c(C(=O)N(C)C)c1F)(C(=O)OCC)c1cccs1 [Example 2-40]	< 0.01 µM
CCOC(=O)C(COC(=O)Oc1c(F)cc(NC(=O)c2ccccc2-c2ccc(C(F)(F)F)cc2)cc1F)(C(=O)OCC)c1cccs1 [Example 2-49]	< 0.01 µM
